Numbers after ± are expanded uncertainties.
Conditions: Liquid

Row | vapor or sublimation pressure (377.95 K) [kPa] | vapor or sublimation pressure (389.37 K) [kPa] | vapor or sublimation pressure (398.01 K) [kPa] | vapor or sublimation pressure (405.04 K) [kPa] | vapor or sublimation pressure (411.02 K) [kPa] | vapor or sublimation pressure (416.25 K) [kPa] | vapor or sublimation pressure (418.18 K) [kPa] | vapor or sublimation pressure (355.83 K) [kPa] | vapor or sublimation pressure (365.99 K) [kPa] | vapor or sublimation pressure (373.87 K) [kPa] | vapor or sublimation pressure (380.27 K) [kPa] | vapor or sublimation pressure (385.71 K) [kPa] | vapor or sublimation pressure (390.45 K) [kPa] | vapor or sublimation pressure (392.2 K) [kPa] | Structure (SMILES)
1 | 26.7 ± 0.2 | 40 ± 0.2 | 53.3 ± 0.2 | 66.7 ± 0.2 | 80 ± 0.2 | 93.3 ± 0.3 | 98.7 ± 0.3 |  |  |  |  |  |  |  | COCC(C)OC(C)=O (centres undefined) [1-methoxy-2-propyl acetate]
2 |  |  |  |  |  |  |  | 26.7 ± 0.2 | 40 ± 0.2 | 53.3 ± 0.2 | 66.7 ± 0.2 | 80 ± 0.2 | 93.3 ± 0.3 | 98.7 ± 0.3 | COCC(C)O (centres undefined) [1-methoxy-2-propanol]

— the NIST ThermoML archive (doi:10.1016/j.fluid.2007.06.006)
